Experimental data: patent US20240148821A1, “PHARMACEUTICAL USE OF CYCLIC PEPTIDE COMPOUND” (CHUGAI SEIYAKU KABUSHIKI KAISHA, priority 2021, published 2024)
Numbered stars: 1 amine (or outer) side, 2 acyl side, 3 side chain; on linkers, the order of the positions; unused ones are H or OH. Bridge positions count the residues as written; N and C are the ends. Square brackets hold non-standard residues; d marks the D form. Peptide text beside a SMILES is read from it. * marks the point of attachment. hPhe(3-Cl-4-CF3) = N[C@@H](CCc1ccc(C(F)(F)F)c(Cl)c1)C(=O)O; hPhe(3-F,4-CF3) = N[C@@H](CCc1ccc(C(F)(F)F)c(F)c1)C(=O)O; NMePhe(3-CF3) = CN[C@@H](Cc1cccc(C(F)(F)F)c1)C(=O)O; NMePhe(4-Cl) = CN[C@@H](Cc1ccc(Cl)cc1)C(=O)O; NMedβ3hAla = C[C@H](CC(=O)[*:2])N(C)[*:1]; NMeCha = CN[C@@H](CC1CCCCC1)C(=O)O; Gly(N-(CH2)2OEt) = CCOCCNCC(=O)O; NMeChg = CN[C@H](C(=O)O)C1CCCCC1; NMeD = CN[C@@H](CC(=O)O)C(=O)O; NMeL = CN[C@@H](CC(C)C)C(=O)O; Chg = N[C@H](C(=O)O)C1CCCCC1; NMeNva = CCC[C@H](NC)C(=O)O; NMeV = CN[C@H](C(=O)O)C(C)C; Trifluoroethyl = FC(F)(F)C*; d(β3hA) = C[C@@H](N)CC(=O)O; NMeS = CN[C@@H](CO)C(=O)O; dPip = O=C(O)[C@H]1CCCCN1; NMeA = CN[C@@H](C)C(=O)O; NMeAib = CNC(C)(C)C(=O)O; Nle = CCCC[C@H](N)C(=O)O; Piperidide = C1CCN(*)CC1; Ac5c = NC1(C(=O)O)CCCC1; Aze = O=C(O)[C@@H]1CCN1; Isopentyl = CC(C)CC*; Sar = CNCC(=O)O

test system: Human pancreatic cancer cell line AsPC-1 (G12D mutation Kras); assay: AsPC-1 cell growth inhibition (AsPC-1 CGI); assay type: cell-based; settings: read-out: AsPC-1 cell growth inhibition, 50% growth inhibitory concentration (IC50 value); 96 hours, CellTiter-Glo, values classified in ranges
Protocol: Test compounds were serially dilated with dimethyl sulfoxide, and 200 nL was then dispensed to a U-bottom 96-well plate using Labcyte Echo. […] The cell suspension was dispensed to a. plate containing a test compound at 100 μL per well and incubated at 37° C. in a 5% carbon dioxide gas incubator. 96 hours later, 80 μL of CellTiter-Glo (Promega) was added to each well and fluorescence was measured.

Row | SMILES | IC50
1 | CC[C@H](C)[C@@H]1NC(=O)[C@H](C)N(C)C(=O)C[C@@H](C(=O)N2CCCCC2)N(C)C(=O)[C@H](C(C)C)N(C)C(=O)C2(CCCC2)NC(=O)[C@@H]2CCCN2C(=O)[C@H](CCc2ccc(C(F)(F)F)c(Cl)c2)NC(=O)[C@H]2CCCCN2C(=O)[C@H](CC2CCCCC2)N(C)C(=O)[C@@H]2CCN2C(=O)CN(C)C1=O [Compound 553] ([NMeA]I[Sar][Aze][NMeCha][dPip][hPhe(3-Cl-4-CF3)]P[Ac5c][NMeV][NMeD]-Piperidide; lactam N-11) | > 500 nM
2 | CCCC[C@@H]1NC(=O)[C@H](Cc2ccccc2)NC(=O)CN(C)C(=O)[C@H](Cc2ccc(Cl)cc2)N(C)C(=O)CN(C)C(=O)CN(C)C(=O)[C@H]([C@@H](C)CC)NC(=O)[C@H](CC(C)C)N(C)C(=O)C[C@@H](C(=O)N2CCCCC2)N(C)C(=O)[C@H](CC(C)C)NC(=O)C(C)(C)N(C)C1=O [Compound 1043] ([NMeL]I[Sar][Sar][NMePhe(4-Cl)][Sar]F[Nle][NMeAib]L[NMeD]-Piperidide; lactam N-11) | > 500 nM
3 | CC[C@H](C)[C@@H]1NC(=O)[C@H](CC(C)C)N(C)C(=O)C[C@@H](C)NC(=O)[C@H](C(C)C)N(C)C(=O)C2(CCCC2)NC(=O)[C@@H]2CCCN2C(=O)[C@H](CCc2ccc(C(F)(F)F)c(Cl)c2)NC(=O)CN(C)C(=O)[C@H](Cc2cccc(C(F)(F)F)c2)N(C)C(=O)CN(C)C(=O)CN(C)C1=O [Compound 1575] (cyclo([Ac5c][NMeV][d(β3hA)][NMeL]I[Sar][Sar][NMePhe(3-CF3)][Sar][hPhe(3-Cl-4-CF3)]P)) | > 500 nM
4 | CC(C)CCOC[C@@H]1NC(=O)[C@H](CC(C)C)N(C)C(=O)C[C@@H](C(=O)N2CCCCC2)N(C)C(=O)[C@H](C2CCCCC2)N(C)C(=O)C2(CCCC2)NC(=O)[C@@H]2CCCN2C(=O)[C@H](CCc2ccc(C(F)(F)F)c(Cl)c2)NC(=O)CN(C)C(=O)[C@H](CC2CCCCC2)N(C)C(=O)CN(C)C(=O)CN(C)C1=O [Compound 794] ([NMeL]S(Isopentyl)[Sar][Sar][NMeCha][Sar][hPhe(3-Cl-4-CF3)]P[Ac5c][NMeChg][NMeD]-Piperidide; lactam N-11) | > 500 nM
5 | CC[C@H](C)[C@@H]1NC(=O)[C@H](CC(C)C)N(C)C(=O)C[C@@H](C)N(C)C(=O)[C@H](CC(C)C)NC(=O)C(C)(C)N(C)C(=O)[C@H](C2CCCCC2)NC(=O)[C@H](CCc2ccc(C(F)(F)F)c(F)c2)NC(=O)CN(C)C(=O)[C@H](Cc2ccc(Cl)cc2)N(C)C(=O)CN(C)C(=O)CN(C)C1=O [Compound 772] (cyclo([Chg][NMeAib]L[NMedβ3hAla][NMeL]I[Sar][Sar][NMePhe(4-Cl)][Sar][hPhe(3-F,4-CF3)])) | > 500 nM
6 | CC[C@H](C)[C@@H]1NC(=O)[C@H](CC(C)C)N(C)C(=O)C[C@@H](C)N(C)C(=O)[C@H](C2CCCCC2)N(C)C(=O)C2(CCCC2)NC(=O)[C@@H]2CCCN2C(=O)[C@H](CCc2ccc(C(F)(F)F)c(Cl)c2)NC(=O)CN(C)C(=O)[C@H](CC2CCCCC2)N(C)C(=O)[C@@H]2CCN2C(=O)[C@H](C)N(C)C1=O [Compound 1813] (cyclo([Ac5c][NMeChg][NMedβ3hAla][NMeL]I[NMeA][Aze][NMeCha][Sar][hPhe(3-Cl-4-CF3)]P)) | > 500 nM
7 | CCC[C@H]1C(=O)NC2(CCCC2)C(=O)N(C)[C@@H](C2CCCCC2)C(=O)N(C)[C@H](C(=O)N2CCCCC2)CC(=O)N(C)[C@@H](CC(C)C)C(=O)N[C@@H]([C@@H](C)CC)C(=O)N(C)CC(=O)N2CCC[C@H]2C(=O)N(C)[C@@H](CC2CCCCC2)C(=O)N(C)CC(=O)N[C@@H](CCc2ccc(C(F)(F)F)c(Cl)c2)C(=O)N1C [Compound 392] ([NMeL]I[Sar]P[NMeCha][Sar][hPhe(3-Cl-4-CF3)][NMeNva][Ac5c][NMeChg][NMeD]-Piperidide; lactam N-11) | > 500 nM
8 | CCOCCN1CC(=O)N(C)[C@@H](CC2CCCCC2)C(=O)N(C)CC(=O)N[C@@H](CCc2ccc(C(F)(F)F)c(Cl)c2)C(=O)N2CCC[C@H]2C(=O)NC2(CCCC2)C(=O)N(C)[C@@H](C(C)C)C(=O)N[C@H](C)CC(=O)N(C)[C@@H](CC(C)C)C(=O)N[C@@H]([C@@H](C)CC)C(=O)N(C)CC1=O [Compound 864] (cyclo([Ac5c][NMeV][d(β3hA)][NMeL]I[Sar][Gly(N-(CH2)2OEt)][NMeCha][Sar][hPhe(3-Cl-4-CF3)]P)) | > 500 nM
9 | CC[C@H](C)[C@@H]1NC(=O)[C@H](CC(C)C)N(C)C(=O)C[C@@H](C(=O)N2CCCCC2)N(C)C(=O)[C@H](COCC(F)(F)F)N(C)C(=O)C2(CCCC2)NC(=O)[C@@H]2CCCN2C(=O)[C@H](CCc2ccc(C(F)(F)F)c(Cl)c2)NC(=O)CN(C)C(=O)[C@H](CC2CCCCC2)N(C)C(=O)CN(C)C(=O)CN(C)C1=O [Compound 208] ([NMeL]I[Sar][Sar][NMeCha][Sar][hPhe(3-Cl-4-CF3)]P[Ac5c][NMeS](Trifluoroethyl)[NMeD]-Piperidide; lactam N-11) | > 500 nM
